pEC50, pIC50, pKi: −log10 of the molar value. One block for each compound: values may come before it.
Tests used:
[1] = target: T1, Sphingosine 1-phosphate receptor 4 (Homo sapiens, UniProt O95977); test: Inhibition of S1P4 receptor (unknown origin)
T1 sequence (O95977 whole entry): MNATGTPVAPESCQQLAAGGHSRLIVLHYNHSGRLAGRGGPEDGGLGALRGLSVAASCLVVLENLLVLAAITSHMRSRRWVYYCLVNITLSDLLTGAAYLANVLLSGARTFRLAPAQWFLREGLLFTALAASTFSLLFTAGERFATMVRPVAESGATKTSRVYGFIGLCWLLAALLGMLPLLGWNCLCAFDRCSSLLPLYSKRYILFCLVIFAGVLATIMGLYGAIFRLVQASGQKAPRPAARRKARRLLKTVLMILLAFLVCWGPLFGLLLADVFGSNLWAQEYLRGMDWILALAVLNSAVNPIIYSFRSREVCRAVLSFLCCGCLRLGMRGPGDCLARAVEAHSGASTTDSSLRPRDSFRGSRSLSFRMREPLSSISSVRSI

Rattus norvegicus [2] = test: Immunomodulatory activity in rat assessed as decrease in peripheral blood lymphocyte count at 50 mg/kg, po after 1 to 8 hrs; format: functional; parameters: scale not given: the % may be the effect or the level left
[3] = target: Sphingosine 1-phosphate receptor 1 (Homo sapiens, UniProt P21453); test: Antagonist activity at human S1P1 receptor expressed in HEK293 cells assessed as inhibition of S1P-induced decrease in cAMP formation by [35S]GTPgammaS binding assay; format: functional, cell-based
[4] = target: T2, Sphingosine 1-phosphate receptor 5 (Homo sapiens, UniProt Q9H228); test: Inhibition of S1P5 receptor (unknown origin)
[5] = target: T3, Sphingosine 1-phosphate receptor 3 (Homo sapiens, UniProt Q99500); test: Inhibition of S1P3 receptor (unknown origin)
[6] = target: T3, Sphingosine 1-phosphate receptor 3; test: Antagonist activity at human S1P3 receptor expressed in CHO cells assessed as inhibition of agonist-induced calcium mobilization preincubated for 20 mins by Fluo-4/FLIPR method; format: functional, cell-based
[7] = target: T1, Sphingosine 1-phosphate receptor 4; test: Agonist activity at S1P4 receptor (unknown origin)
Rattus norvegicus [8] = test: Immunomodulatory activity in rat assessed as decrease in peripheral blood lymphocyte count at 30 mg/kg, po after 14 to 24 hrs; format: functional; parameters: scale not given: the % may be the effect or the level left
[9] = target: T2, Sphingosine 1-phosphate receptor 5; test: Antagonist activity at human S1P5 receptor expressed in CHO cells after 120 mins by [35S]GTPgammaS binding assay; format: functional, cell-based
Rattus norvegicus [10] = test: Immunomodulatory activity in rat assessed as decrease in peripheral blood lymphocyte count at 30 mg/kg, po after 48 hrs; format: functional; parameters: scale not given: the % may be the effect or the level left
[11] = target: Sphingosine 1-phosphate receptor 2 (Homo sapiens, UniProt O95136); test: Antagonist activity at human S1P2 receptor expressed in CHO cells assessed as inhibition of agonist-induced calcium mobilization preincubated for 20 mins by Fluo-4/FLIPR method; format: functional, cell-based
[12] = target: T1, Sphingosine 1-phosphate receptor 4; test: Antagonist activity at human S1P4 receptor expressed in CHO cells assessed as inhibition of agonist-induced calcium mobilization preincubated for 20 mins by Fluo-4/FLIPR method; format: functional, cell-based
[13] = target: T3, Sphingosine 1-phosphate receptor 3; test: Agonist activity at S1P3 receptor (unknown origin)
[14] = target: T2, Sphingosine 1-phosphate receptor 5; test: Agonist activity at S1P5 receptor (unknown origin)
Homo sapiens [15] = test: Immunomodulatory activity in multiple sclerosis patient assessed as decrease in peripheral blood lymphocyte count at 1.25 mg/kg, po; format: functional; parameters: scale not given: the % may be the effect or the level left
[16] = Half life in human; format: ADME, organism-based; conditions: in vivo
Homo sapiens [17] = test: Immunomodulatory activity in multiple sclerosis patient assessed as decrease in peripheral blood lymphocyte count at 5 mg/kg, po; format: functional; parameters: scale not given: the % may be the effect or the level left
Mus musculus = test: Immunomodulatory activity in po dosed mouse assessed as decrease in peripheral blood lymphocyte count after 3 hrs; format: functional
[18] = Half life of the compound; format: physicochemical
Rattus norvegicus [19] = test: Immunomodulatory activity in rat assessed as decrease in peripheral blood lymphocyte count at 100 mg/kg, po after 12 hrs; format: functional; parameters: scale not given: the % may be the effect or the level left
[20] = target: T1, Sphingosine 1-phosphate receptor 4; test: Agonist activity at human S1P4 receptor expressed in CHO cells by [35S]GTPgammaS binding assay; format: functional, cell-based
[21] = target: T2, Sphingosine 1-phosphate receptor 5; test: Agonist activity at human S1P5 receptor expressed in CHO cells by [35S]GTPgammaS binding assay; format: functional, cell-based

T2 sequence (Q9H228 whole entry): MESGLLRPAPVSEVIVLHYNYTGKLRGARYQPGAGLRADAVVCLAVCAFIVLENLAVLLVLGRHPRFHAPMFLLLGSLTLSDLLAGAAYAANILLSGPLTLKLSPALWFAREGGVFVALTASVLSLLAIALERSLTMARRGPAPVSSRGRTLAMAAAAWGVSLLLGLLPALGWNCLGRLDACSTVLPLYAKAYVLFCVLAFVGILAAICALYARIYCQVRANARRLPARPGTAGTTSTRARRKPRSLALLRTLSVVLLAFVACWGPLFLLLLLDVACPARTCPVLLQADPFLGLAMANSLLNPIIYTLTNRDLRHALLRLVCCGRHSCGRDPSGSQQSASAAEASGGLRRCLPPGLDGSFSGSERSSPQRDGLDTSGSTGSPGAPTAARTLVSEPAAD
T3 sequence (Q99500 whole entry): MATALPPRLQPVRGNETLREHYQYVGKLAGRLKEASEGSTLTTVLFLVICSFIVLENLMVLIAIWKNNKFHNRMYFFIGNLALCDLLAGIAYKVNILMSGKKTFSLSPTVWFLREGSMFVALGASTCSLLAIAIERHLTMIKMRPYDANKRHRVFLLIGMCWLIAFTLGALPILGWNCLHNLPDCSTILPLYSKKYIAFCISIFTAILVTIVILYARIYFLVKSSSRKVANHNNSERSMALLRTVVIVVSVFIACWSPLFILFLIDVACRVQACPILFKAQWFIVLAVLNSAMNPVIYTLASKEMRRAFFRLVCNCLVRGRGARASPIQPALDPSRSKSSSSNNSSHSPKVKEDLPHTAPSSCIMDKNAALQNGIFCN
Chain of Sphingosine 1-phosphate receptor 1 (P21453 whole entry): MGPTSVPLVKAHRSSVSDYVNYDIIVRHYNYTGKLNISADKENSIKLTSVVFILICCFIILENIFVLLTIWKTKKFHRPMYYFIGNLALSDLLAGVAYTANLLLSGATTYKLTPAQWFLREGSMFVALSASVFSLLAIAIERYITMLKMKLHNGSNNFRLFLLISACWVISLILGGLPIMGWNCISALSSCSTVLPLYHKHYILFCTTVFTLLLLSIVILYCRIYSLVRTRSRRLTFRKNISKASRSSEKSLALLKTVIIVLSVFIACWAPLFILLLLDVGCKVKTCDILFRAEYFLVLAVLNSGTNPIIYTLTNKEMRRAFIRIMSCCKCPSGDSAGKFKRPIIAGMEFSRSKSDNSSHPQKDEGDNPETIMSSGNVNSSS
Chain of Sphingosine 1-phosphate receptor 2 (O95136 whole entry): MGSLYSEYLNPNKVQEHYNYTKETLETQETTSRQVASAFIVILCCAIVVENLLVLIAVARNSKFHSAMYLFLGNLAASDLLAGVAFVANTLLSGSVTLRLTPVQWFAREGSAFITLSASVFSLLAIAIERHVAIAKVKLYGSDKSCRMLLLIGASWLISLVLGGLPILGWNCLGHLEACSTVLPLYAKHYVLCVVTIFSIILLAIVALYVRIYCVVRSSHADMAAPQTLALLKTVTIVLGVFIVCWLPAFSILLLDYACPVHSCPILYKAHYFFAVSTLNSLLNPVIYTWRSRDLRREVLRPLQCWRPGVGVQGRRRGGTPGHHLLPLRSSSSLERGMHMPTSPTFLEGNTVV

pIC50 [6]: < 5.00
pEC50 [7]: 6.61
pIC50 [9]: < 5.00
pIC50 [11]: < 5.00
pIC50 [12]: < 5.00
Structure (SMILES): Cc1cc([C@@H](C)Nc2cccc(-c3cc(C)c(C(=O)N[C@@H](C)C(=O)O)c(C)c3)c2)ccc1Cl
Activity (Rattus norvegicus [8]): 75%
Activity (Rattus norvegicus [10]): 60%

half-life [18]: 30 h
Structure (SMILES): CCC/N=C1\S/C(=C\c2ccc(OC[C@H](O)CO)c(Cl)c2)C(=O)N1c1ccccc1C [PONESIMOD]

half-life [18]: 168 h
Structure (SMILES): Cc1ccc(CCCC(=O)c2ccc(CC[C@@](C)(N)CO)n2C)cc1

Second part, the compound before the results:

Structure (SMILES): CCn1c(OC)nnc1[C@@H](C)NS(=O)(=O)c1ccc(F)c(Cl)c1
pKi [1]: < 5.00
Activity (Rattus norvegicus [2]): >70%
pIC50 [3]: 6.42
pKi [3]: 6.60
pKi [4]: < 5.00
pKi [5]: 5.31

Structure (SMILES): CCCCCCCCc1ccc(CCC(N)(CO)CO)cc1 [FINGOLIMOD]
pEC50 [7]: 9.52
pEC50 [13]: 8.52
pEC50 [14]: 9.52
Activity (Homo sapiens [15]): 20%
half-life [16]: 216 h
Activity (Homo sapiens [17]): 20%

Structure (SMILES): O=C(O)C1CN(Cc2ccc(-c3noc(-c4cc(-c5ccccc5)c(C(F)(F)F)s4)n3)cc2)C1
ED50 (Mus musculus): 0.07 mg/kg

Structure (SMILES): Cc1cc(S(=O)(=O)Nc2cccc(-c3cc(C)c(C(=O)N[C@@H](C)C(=O)O)c(C)c3)c2)c(C)cc1Cl
Activity (Rattus norvegicus [19]): 75%

Structure (SMILES): CCc1cc(/C(C)=N/OCc2ccc(C3CCCCC3)c(C(F)(F)F)c2)ccc1CN1CC(C(=O)O)C1 [SIPONIMOD]
pEC50 [20]: 6.12
pEC50 [21]: 9.01
half-life [16]: 30 h

Reference: ChEMBL document CHEMBL3085709, “Modulators of the Sphingosine 1-phosphate receptor 1” (Bioorg Med Chem Lett, 2013)
